Entries after “also recorded” stand apart in the source; their conditions may differ. Where two headings read alike, the source gives them in different places.
Legend:
[1] = molecular target: Sm.5HTR (Schistosoma mansoni, UniProt G4V5G4); type: cell-based; conditions: for activity at Sm.5HTR, in words: antagonist screen, FIG. 7; for potency (IC50) at Sm.5HTR, lower right quadrant of FIG. 13: inhibition of cAMP generation
Method: (§1) HEK293 cells (ATCC CRL-1573.3) were cultured in DMEM supplemented with 10% fetal bovine serum (FBS), penicillin (100 units/mL), streptomycin (100 μg/mL), and L-glutamine (290 μg/mL). Cells were transiently transfected (ViaFect, Promega) as per the manufacturer's protocol at a density of 2×10^6 cells per T-25 cell-culture flask. Cells were transfected with plasmids encoding GloSensor (Promega) and either Sm.5HTR, (Smp_126730, GenBank accession number KF444051.1) or Sm.5HTRL (KX150867), both GPCRs being codon optimized for mammalian expression, or Hs.5HT7a (GenBank accession number NM_000872.4, R&D Systems) subcloned into pCS2(−). Cell culture reagents were from Invitrogen. Epitope tagged constructs were used to verify expression, and untagged constructs used for all luminescence assays.
(§2) For assays performed on adherent cells, HEK-293 cells were transferred one day post transfection to 96 well, solid white plates (Corning, cat #3917) coated with 0.01% poly-L-lysine (Sigma Aldrich) at a density of 5×10^4 cells/well in DMEM supplemented with 1% dialyzed FBS (Gibco). After overnight culture (37° C./5% CO2), media was decanted and replaced with 100 μL/well HBSS supplemented with 0.1% BSA, 20 mM HEPES (pH 7.4) and GloSensor™ reagent. Plates were allowed to equilibrate at room temperature for two hours prior to performing luminescence assays (GloMax-Multi Detection System plate reader, Promega). Conditions for individual assays were described as per figure legends. The standard assay to detect changes in cAMP utilized the F22 sensor in media supplemented with IBMX (200 μM). Ligands were added at a concentration of 20× per well for experiments (i.e., 5 μl of drug solution added to 100 μL of cells). […] For the resazurin reduction assay for cellular viability, cells were incubated with resazurin (final concentration, 10 μM) and tested ligands with fluorescence measurements (560 nm excitation/590 nm emission) made at 1.5 hours intervals.
(§3) The protocol for screening is shown schematically in FIG. 5A. HEK293 cells transiently transfected with either the human 5HT7 receptor (Hs.5HT7R) or the schistosome receptor (Sm.5HTR) were exposed to test ligands in a 96-well plate format. […] Luminescence was then read at a fixed time point (t=60 minutes, FIG. 5A). Hits were assigned as compounds that evoked a ≥50% decrease in luminescence output at the fixed time sampling point (FIG. 5B).

[2] = tested on: adult schistosomes; assay: Egg laying assay, adult schistosome pairs in vitro; type: cell-based, Schistosoma mansoni; conditions: serotonin 100 μM, forskolin 100 μM, LSD 10 μM, nuciferine 10 μM, ergotamine 5 μM (FIG. 19F); eggs per worm pair/day over five days
Description: Female Swiss Webster mice infected with S. mansoni cerceria (NMRI strain) were sacrificed 49 days post infection by CO2 euthanasia. Adult schistosomes were recovered by perfusion with a solution of 0.85% sodium chloride+0.75% sodium citrate and dissection of the mesenteric vasculature. Harvested schistosomes were washed in RPMI 1640 Medium with GlutaMAX+5% heat inactivated FBS (Gibco) and Penicillin-Streptomycin (final concentration 100 units/mL, ThermoFisher cat #15140122).
For egg laying assays, adult schistosomes were transferred to 24 well plates the day after harvesting from mice (5 worm pairs in 2 mL media per well). Eggs were counted under a stereomicroscope daily, after which worms were transferred to a new well with fresh drug containing media. Egg counts were recorded for five days, and data processed as the mean number of eggs laid per worm pair/day. Measurements of egg dimensions were quantified using the “analyze>measure” function in ImageJ to record the length and width of individual eggs.

[3] = molecular target: Sm.5HTR (Schistosoma mansoni, UniProt A0A173FEI8); assay: cell-based; conditions: for antagonist activity at Sm.5HTR, in words: FIG. 18B
Chain of Sm.5HTR (Schistosoma mansoni, UniProt A0A173FEI8) (A0A173FEI8 entry or part of it): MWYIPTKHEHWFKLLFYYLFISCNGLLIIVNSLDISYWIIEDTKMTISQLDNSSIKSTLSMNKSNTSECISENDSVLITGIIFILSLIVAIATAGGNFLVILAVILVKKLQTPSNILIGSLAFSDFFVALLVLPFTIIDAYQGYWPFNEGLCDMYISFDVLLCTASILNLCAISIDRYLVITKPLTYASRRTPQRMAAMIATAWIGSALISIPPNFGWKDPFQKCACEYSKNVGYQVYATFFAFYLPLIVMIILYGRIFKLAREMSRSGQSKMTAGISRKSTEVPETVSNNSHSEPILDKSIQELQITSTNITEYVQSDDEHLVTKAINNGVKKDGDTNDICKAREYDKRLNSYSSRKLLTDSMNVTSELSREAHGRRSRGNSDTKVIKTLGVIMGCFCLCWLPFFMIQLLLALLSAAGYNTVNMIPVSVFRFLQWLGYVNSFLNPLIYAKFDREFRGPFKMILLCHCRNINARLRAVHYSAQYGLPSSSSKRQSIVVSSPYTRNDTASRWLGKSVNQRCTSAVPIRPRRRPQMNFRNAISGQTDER
Method: HEK293 cells (ATCC CRL-1573.3) were cultured in growth media consisting of DMEM supplemented with GlutaMAX (Gibco cat #10566016)+10% heat inactivated fetal bovine serum and penicillin-streptomycin (100 units/mL, ThermoFisher). Stable cell lines for the pGloSensor-22F cAMP Plasmid (Promega) and schistosome 5HTRs in pcDNA3.1(−) were selected with hygromycin (200 μg/mL) and G418 (400 μg/mL). The correct identity of each stably expressed sequence was verified by isolating total RNA from each stable line (TRIzol Reagent, Ambion) and amplifying the sequence of interest with gene specific primers flanking the 5′ and 3′ regions of the cds (SuperScript® III One-Step RT-PCR System, Invitrogen). PCR products were ligated into a TA cloning vector (pGEM-T Easy, Promega) and sequenced.
HEK293 lines stably expressing both the 22F cAMP sensor and Sm.5HTR were cultured in growth media supplemented with 10% dialyzed FRS. For cAMP assays in 96 well format, cells cultured in T-75 flasks were trypsinized (TrypLE Express, Gibco) and plated in solid white 96 well plates (Costar cat #3917) the day prior to assay at a density of 2.5×10^4 cells/well. The following day media was removed and replaced with assay buffer consisting of HBSS buffered with HEPES (20 mM, pH 7.4)+BSA (0.1% w/v) and D-luciferin sodium salt (1 mg/mL, Gold Biotechnology). Plates were equilibrated at room temperature for 1 hour, at which point 3-Isobutyl-1-methylxanthine (IBMX 200 μM, Sigma Aldrich) was added. Plates were equilibrated a further 30 minutes prior to test compound addition. […] Readings performed in 384 well format were modified so that cells were assayed in suspension. Cells were grown to 70% confluence in T-75 flasks, trypsinized and pelleted (300 RCF×5 minutes). Media was removed and cells were resuspended in 25 mL assay buffer supplemented with IBMX (200 μM). A 96 channel semi-automated pipet (Eppendorf epMotion 96) delivered 55 μL of cell suspension per well (5000 cells/well) into solid white 384 plates (Corning 3574).

[4] = molecular target: Sm.5HTRL (Schistosoma mansoni, UniProt A0A173FEI8); assay: GloSensor cAMP assay, HEK293 cells transiently transfected with Sm.5HTRL; type: cell-based; conditions: antagonists 10 μM; 5-HT EC80 dose 0.8 μM (FIG. 8)
Chain of Sm.5HTRL (A0A173FEI8 entry or part of it): as above
Method: as §1, §2

[5] = molecular target: T1, Hs.5HT7R (Homo sapiens, UniProt P34969); assay: GloSensor cAMP assay, HEK293 cells transiently transfected with Hs.5HT7R; type: cell-based; conditions: for potency (IC50) at Hs.5HT7R, lower right quadrant of FIG. 13: inhibition of cAMP generation
T1 construct: host or cells: HEK293 (ATCC CRL-1573.3), transient, pCS2(−), co-transfected with GloSensor
T1 sequence (P34969 1-445 isoform P34969-2): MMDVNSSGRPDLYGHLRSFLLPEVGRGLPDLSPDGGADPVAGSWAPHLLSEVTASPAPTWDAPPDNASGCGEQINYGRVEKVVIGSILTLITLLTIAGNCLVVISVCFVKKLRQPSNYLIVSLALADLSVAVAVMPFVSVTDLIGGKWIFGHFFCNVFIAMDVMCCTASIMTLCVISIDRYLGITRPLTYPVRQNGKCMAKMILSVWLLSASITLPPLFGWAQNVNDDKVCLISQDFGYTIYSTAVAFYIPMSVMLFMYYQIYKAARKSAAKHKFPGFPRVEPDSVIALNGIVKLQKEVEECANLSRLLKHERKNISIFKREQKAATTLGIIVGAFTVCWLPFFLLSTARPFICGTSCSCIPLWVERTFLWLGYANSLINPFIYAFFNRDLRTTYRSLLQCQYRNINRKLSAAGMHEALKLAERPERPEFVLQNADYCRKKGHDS
Method: as §1, §2, §3

[6] = tested on: S. mansoni schistosomules; assay: Schistosomule contractility assay; type: cell-based; conditions: Schistosoma mansoni
Method: FIGS. 14A-14F. […] Effects of selected ligands on schistosomules. […] A contractile cycle is defined when a deviation of ≥20% of the average body length (dashed lines) occurs.
Biomphalaria glabrata (M-line) snails exposed to Schistosoma mansoni miracidia (Strain PR-1) were obtained from BEI Resources (Cat. number NR-21961) and cercaria were shed following exposure to light (1.5 hours). Cercaria were manually transformed into schistosomula by vortexing (3×45 seconds, each separated by 3 minutes on ice) and tails were removed by gradient centrifugation (24 mL Percoll, 4 mL 10×EMEM, 1.5 ml penicillin-streptomycin, 1 mL of 1M HEPES in 0.85% NaCl, 9.5 ml distilled water) at 500 g/15 minutes at 4° C. Supernatant containing tails was discarded, and schistosomules were resuspended in Basch media and incubated (37° C., 5% CO2) overnight before conducting mobility assays. For contractility experiments, somules were incubated in 5-HT free Basch media to resolve a basal contractility rate. […] Schistosomules were incubated in 24 well plates (about 200 schistosomules/0.5 mL media per well) for 30 minutes (37° C./5% CO2) prior to acquiring videos of schistosome movement (1 minute recordings/well) using a Nikon Coolpix 5700 camera affixed to a Nikon Eclipse TS100 microscope (10× objective). The WrmTrck plugin for ImageJ was used to quantify worm mobility (El-Shehabi et al., 2012). Briefly, the major axis of each schistosomule body length was extracted from the raw output of WrmTrck and an average length was determined for the duration of the recording. Contractions were quantified by determining the number of episodes during which the worm body length deviated from the average by over 20%. S. mansoni protocols were approved by the Iowa State University Institutional Biosafety Committee.

[7] = antagonism of 5-HT evoked cAMP, FIGS. 7, 12, 13
[8] = HEK293, agonist read, 45 minutes, read-out: Sm.5HTR Emax

Chain of Sm.5HTR (Schistosoma mansoni, UniProt G4V5G4) (G4V5G4 entry or part of it): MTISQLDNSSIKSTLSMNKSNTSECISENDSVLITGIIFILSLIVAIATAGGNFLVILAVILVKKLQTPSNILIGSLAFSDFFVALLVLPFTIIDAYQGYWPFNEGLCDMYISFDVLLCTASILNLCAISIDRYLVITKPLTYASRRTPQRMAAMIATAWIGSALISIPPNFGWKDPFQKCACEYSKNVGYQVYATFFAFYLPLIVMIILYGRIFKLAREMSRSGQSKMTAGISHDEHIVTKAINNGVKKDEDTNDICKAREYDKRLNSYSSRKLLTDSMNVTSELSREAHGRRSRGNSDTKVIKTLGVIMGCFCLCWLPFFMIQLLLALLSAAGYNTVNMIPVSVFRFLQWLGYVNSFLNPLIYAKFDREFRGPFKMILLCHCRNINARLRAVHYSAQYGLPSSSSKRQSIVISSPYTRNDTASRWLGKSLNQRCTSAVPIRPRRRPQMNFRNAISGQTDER

## CC1CCN(CC[C@H]2CCCN2S(=O)(=O)c2cccc(O)c2)CC1 [SB269970]
[1]
  activity at Sm.5HTR, in words: modest effects on Sm.5HTR
[1]; listed as SB 269970
  activity at Sm.5HTR, in words: completely lacked activity at Sm.5HTR

## C=C[C@@]1(C)CC(=O)[C@]2(O)[C@@]3(C)[C@@H](O)CCC(C)(C)[C@@H]3[C@H](O)[C@H](OC(C)=O)[C@@]2(C)O1 [forskolin]
[2]
  decrease of egg laying: 62%

## CCN(CC)C(=O)N[C@H]1C[C@@H]2c3cccc4[nH]cc(c34)C[C@H]2N(C)C1 [terguride]
[3]; 5-HT 500 nM, read-out: Sm.5HTR IC50 (antagonist)
  IC50: 400 ± 50 nM
[3]; FIG. 18C
  agonist activity at Sm.5HTR, in words: completely eliminates agonist activity

## COc1cc2c3c(c1OC)-c1ccccc1C[C@H]3N(C)CC2 [nuciferine]
[2]
  decrease of egg laying: no effect

## COc1cc2nc(N(C)CCCNC(=O)C3CCCO3)nc(N)c2cc1OC (centres unmarked) [alfuzosin]
[1]; [7]
  selectivity Sm.5HTR versus Hs.5HT7R (IC50 (Hs.5HT7R)/IC50 (Sm.5HTR)), in words: clear selectivity for Sm.5HTR
[4]
  inhibition of 5-HT evoked cAMP generation through Sm.5HTRL: inhibited 5-HT evoked cAMP generation through Sm.5HTRL

## COc1cc2c(cc1OC)C1CC(=O)C(CC(C)C)CN1CC2 (centres unmarked) [tetrabenazine]
[1]
  selectivity Sm.5HTR versus Hs.5HT7R (IC50 (Hs.5HT7R)/IC50 (Sm.5HTR)), in words: selectivity for Sm.5HTR retained
  potency (IC50) at Sm.5HTR, lower right quadrant of FIG. 13: sub-μM potency
[5]
  potency (IC50) at Hs.5HT7R, lower right quadrant of FIG. 13: supra-μM potency
[6]; read-out: inhibition of 5-HT evoked contractility
  inhibition at 100 µM: ~50%

## CN1C[C@H](C(=O)N[C@]2(C)O[C@@]3(O)[C@@H]4CCCN4C(=O)[C@H](Cc4ccccc4)N3C2=O)C[C@@H]2c3cccc4[nH]cc(c34)C[C@H]21 [dihydroergotamine]
[1]; FIG. 10A
  agonist efficacy at Sm.5HTR, in words: partial agonism
[1]; FIG. 10A, read-out: EC50, agonist activity at Sm.5HTR
  EC50: 315 nM
[3]; HEK293, read-out: Sm.5HTR Emax
  Emax: 103 ± 11%

## CCN(CC)C(=O)[C@@H]1C=C2c3cccc4[nH]cc(c34)C[C@H]2N(C)C1 [LSD, lysergic acid diethylamide]
[1]; >10 μM
  inhibition of 5-HT evoked cAMP generation at higher concentrations: almost complete inhibition
[1]; FIG. 10A
  agonist efficacy at Sm.5HTR, in words: no efficacy
[1]; antagonism of 5-HT evoked cAMP accumulation, FIG. 10F, read-out: affinity constants (KB), Schild regression analysis
  Kb: 629 nM
[1]; increasing doses of ligand, FIGS. 10B-D
  nature of antagonism: right-shift in the 5-HT dose-response relationship: competitive antagonism
[3]
  EC50: 250 ± 150 nM
[3]; HEK293, read-out: Sm.5HTR Emax
  Emax: 40 ± 26%
[2]
  decrease of egg laying: no effect

## COc1cc2c(cc1OC)-c1cc3ccc(OC)c(OC)c3c[n+]1CC2 [palmatine]
[1]; [7]
  selectivity Sm.5HTR versus Hs.5HT7R (IC50 (Hs.5HT7R)/IC50 (Sm.5HTR)), in words: decreased potency and selectivity for Sm.5HTR

## CNCC[C@@H](Oc1ccccc1C)c1ccccc1 [atomoxetine]
[1]
  selectivity Sm.5HTR versus Hs.5HT7R (IC50 (Hs.5HT7R)/IC50 (Sm.5HTR)), in words: clear selectivity for Sm.5HTR; also recorded: preferential selectivity toward Sm.5HTR
[4]
  inhibition of 5-HT evoked cAMP generation through Sm.5HTRL: inhibited 5-HT evoked cAMP generation through Sm.5HTRL

## O=S(=O)(c1ccccc1)c1cnc2c(N3CCNCC3)cccc2c1 [SB742457]
[1]
  activity at Sm.5HTR, in words: completely lacked activity at Sm.5HTR; also recorded: modest effects on Sm.5HTR
[5]; FIG. 7
  inhibition of Hs.5HT7R, in words: potent inhibitors of Hs.5HT7R

## COc1ccc2cc1Oc1ccc(cc1)C[C@H]1c3cc(c(OC)cc3CCN1C)Oc1c(OC)c(OC)cc3c1[C@H](C2)N(C)CC3 [tetrandrine]
[1]
  potency (IC50) at Sm.5HTR, lower right quadrant of FIG. 13: sub-μM potency
[5]
  potency (IC50) at Hs.5HT7R, lower right quadrant of FIG. 13: supra-μM potency
[6]; read-out: IC50, inhibition of 5-HT evoked contractions
  IC50: ≤ 1000 nM

## C[C@@H](CO)NC(=O)[C@@H]1C=C2c3cccc4[nH]cc(c34)C[C@H]2N(C)C1 [ergometrine]
[3]; [8]
  Emax: 61 ± 4%

## CC(C)C[C@H]1C(=O)N2CCC[C@H]2[C@]2(O)O[C@](NC(=O)[C@@H]3C=C4c5cccc6[nH]cc(c56)C[C@H]4N(C)C3)(C(C)C)C(=O)N12 [α-ergocryptine]
[3]
  antagonist activity at Sm.5HTR, in words: loss of antagonist activity
[3]; agonist read, 45 minutes
  Sm.5HTR Emax: negligible activity

## CCN1CCCC1CNC(=O)c1cc(S(=O)(=O)CC)c(N)cc1OC (centres unmarked) [amisulpiride]
[1]
  activity at Sm.5HTR, in words: modest effects on Sm.5HTR

## COc1ccc2cc3[n+](cc2c1OC)CCc1cc2c(cc1-3)OCO2 [berberine]
[1]; [7]
  selectivity Sm.5HTR versus Hs.5HT7R (IC50 (Hs.5HT7R)/IC50 (Sm.5HTR)), in words: decreased potency and selectivity for Sm.5HTR

## CNCCC(Oc1ccc(C(F)(F)F)cc1)c1ccccc1 (centres unmarked) [fluoxetine]
[1]
  selectivity Sm.5HTR versus Hs.5HT7R (IC50 (Hs.5HT7R)/IC50 (Sm.5HTR)), in words: preferential selectivity toward Sm.5HTR

## CC(C)[C@@]1(NC(=O)[C@@H]2C[C@@H]3c4cccc5[nH]cc(c45)C[C@H]3N(C)C2)O[C@@]2(O)[C@@H]3CCCN3C(=O)[C@H](Cc3ccccc3)N2C1=O [dihydroergocristine]
[3]
  antagonist activity at Sm.5HTR, in words: is an antagonist
[3]; [8]
  Emax: 22 ± 2%

Reference: patent US10426772B2, “Use of ergot alkaloids as an anthelmintic agent” (priority 2016, dated 2019)
